Measured values taken from patent publication US20110160147A1, “NOVEL DUAL TARGETING A[…]” (priority 2008, published 2011).

Key:
αvβ3 receptor = αvβ3 receptor (Homo sapiens, UniProt P05106+P06756); assay: Solid-phase binding assay, inhibition of [125I]Echistatin binding to αvβ3 receptor
Description: (§1) The receptor binding assays were performed as described (Orlando R. A., et al., J. Biol. Chem. 1991, 266, 19543). αvβ3 and αvβ5 were diluted to 500 ng/ml and 1 μg/ml, respectively, in coating buffer (20 mM Tris, pH 7.4, 150 mM NaCl, 2 mM CaCl2, 1 mM MgCl2, 1 mM MnCl2) and an aliquot of 100 μL was added to a 96-well microtiter plate and incubated overnight at 4° C. The plate was washed once with blocking/binding buffer (50 mM Tris, pH 7.4, 100 mM NaCl, 2 mM CaCl2, 1 mM MgCl2, 1 mM MnCl2, 1% bovine serum albumin), and then was incubated for additional 2 h at RT The plate was rinsed twice with the same buffer and incubated for 3 h at RT with radiolabeled ligand [^125I]Echistatin (Amersham Pharmacia Biotech) 0.05 nM (0.1 nM for αv β5) in the presence of competing inhibitors. After the incubation, the wells were washed and radioactivity was determined with a gamma-counter (Packard). Non-specific binding of ligand was determined with molar excess (200 nM) of cold echistatin.
(§2) The IC50 values reported in Tables 1 and 2 were calculated as the concentrations of compounds required for 50% inhibition of echistatin binding and were estimated by the Prism GraphPad program. The Ki of the competing ligands were calculated according to the Cheng-Prusoff equation (Cheng Y. C., et al., Biochem. Pharmacol., 1973, 22, 3099). Values are the mean±log standard error of triplicate determinations from two independent experiments.

[1] = system: PC3 prostate ca. xenografted in CD1 nude mice; assay: Antimetastatic activity on bone metastases induced by intracardiac injection of PC3 human prostate carcinoma; type: in vivo
Description: Male CD1 nude mice were anesthetized by 4 ml/kg of a mixture (xylazine:ketavet 100) given i.p. PC3 tumour cells were inoculated by intracardiac injection (1×10^5 cells/0.1 ml/mouse) into the heart left ventricle of mice using a 27-gauge needle. Mice were subdivided (11 mice/group) in the following experimental groups and after three days from tumour injection the molecules were administered as described:
Vehicle (DMSO 10%) i.v. q4d×4.
To evaluate the antitumour activity of the drug, high-resolution total body radiological analysis was carried out by using Faxitron system. Radiological analysis was carried out 30 days after tumour injection. Body weight recordings were carried out through the study and mortality was noted.

[2] = system: PC3 prostate carcinoma cells; type: cell-based, human; conditions: PC3, 1 h of treatment; read-out: IC50 ± SD, antiadhesive effect to vitronectin
Description: (§3) A2780 human ovarian carcinoma and PC3 prostate carcinoma cells were grown in medium culture RPMI 1640 containing 10% fetal bovine serum and 50 μg/ml gentamycin sulfate. Cells were maintained in a 37° C. incubator with saturated humidity and an atmosphere of 95% air and 5% CO2. A2780 tumour cell line expresses high levels of αvβ5 integrin, and PC3 low levels of both integrins.
(§4) In 96-well tissue culture plates, 50 μl/well of a solution of vitronectin (5 μg/ml) were added for 2 h at room temperature. The solutions were removed upsetting the plates. 50 μl/well of a solution 1% BSA were added for 1 h at RT. The plates were washed by addition of 100 μl/well of medium culture RPMI 1640 without fetal calf serum (FCS). The washing was repeated twice. The molecules were added at different concentrations in the range between 0.039 μM and 20 μM. The solutions were prepared by dilution 1:2 in medium culture without FCS. Tumour cells in the flasks were washed in saline solution before to be detached by scraper, by the addition of 5 ml of medium culture without FCS and 1% BSA. Tumour cells were counted after resuspension and added at an appropriate cellular density (40000-50000 cells/well). The plates were incubated for 1 h at 37° C. in humidified incubator with 5% CO2. Then, the solutions were removed upsetting the plates and washed once with 200 μl/well of PBS with Ca^2+ e Mg^2+. Tumour cells were fixed with 100 μl of a solution 4% paraformaldehyde in 0.2 M Sorensen phosphate buffer pH 7.2-7.4 for 10 min at RT The plates were upset and 100 μl of 1% Toluidine Blu solution were added for 10 min at RT The plates were washed twice by immersion in bi-distilled water and then dried at 60° C. in thermostat incubator (Kottermann). 100 μl/well of 1% SDS were added. The plates were kept under stirring for 20 min at RT and were then evaluated by Victor 1420 multilabel counter (Wallac) at 600 nm.
(§5) The IC50 value as parameter to measure the inhibiting effect of the molecules on tumour cell adhesion to vitronectin was evaluated using “ALLFIT” computer program.

[3] = system: A2780 ovarian carcinoma cells; type: cell-based, human; conditions: A2780, 1 h of treatment; read-out: IC50 ± SD, antiadhesive effect to vitronectin
Description: as §3, §4, §5

αvβ5 receptors = αvβ5 receptors (Homo sapiens, UniProt P06756+P18084); assay: Solid-phase binding assay, inhibition of [125I]Echistatin binding to αvβ5 receptors
Description: as §1, §2

Chain of αvβ3 receptor (P06756 31-889 limits assumed): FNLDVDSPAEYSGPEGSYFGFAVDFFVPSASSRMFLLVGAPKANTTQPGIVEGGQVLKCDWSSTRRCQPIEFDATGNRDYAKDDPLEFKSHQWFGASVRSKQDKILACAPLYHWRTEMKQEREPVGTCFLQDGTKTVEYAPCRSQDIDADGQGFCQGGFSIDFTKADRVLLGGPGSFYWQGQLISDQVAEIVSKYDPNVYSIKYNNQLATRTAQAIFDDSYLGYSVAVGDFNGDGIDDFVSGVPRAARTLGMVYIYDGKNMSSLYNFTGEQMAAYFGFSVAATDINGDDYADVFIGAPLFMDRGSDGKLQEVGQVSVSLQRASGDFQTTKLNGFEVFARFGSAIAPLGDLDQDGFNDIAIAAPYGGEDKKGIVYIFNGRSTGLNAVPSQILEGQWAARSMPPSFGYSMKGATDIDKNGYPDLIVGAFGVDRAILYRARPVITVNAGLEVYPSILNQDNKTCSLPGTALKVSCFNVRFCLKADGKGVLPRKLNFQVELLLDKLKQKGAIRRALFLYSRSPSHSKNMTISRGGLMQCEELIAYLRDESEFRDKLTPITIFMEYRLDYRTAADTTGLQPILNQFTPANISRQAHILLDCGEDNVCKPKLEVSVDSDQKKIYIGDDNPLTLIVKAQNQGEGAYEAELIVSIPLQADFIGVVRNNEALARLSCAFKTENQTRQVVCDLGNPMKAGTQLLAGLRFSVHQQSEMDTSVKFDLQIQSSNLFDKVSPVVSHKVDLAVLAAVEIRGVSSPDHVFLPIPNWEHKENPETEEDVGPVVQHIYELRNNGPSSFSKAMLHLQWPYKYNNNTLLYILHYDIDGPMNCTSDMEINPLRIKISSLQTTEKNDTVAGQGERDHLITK
Chain of αvβ3 receptor (P06756 891-1048 partner limits assumed): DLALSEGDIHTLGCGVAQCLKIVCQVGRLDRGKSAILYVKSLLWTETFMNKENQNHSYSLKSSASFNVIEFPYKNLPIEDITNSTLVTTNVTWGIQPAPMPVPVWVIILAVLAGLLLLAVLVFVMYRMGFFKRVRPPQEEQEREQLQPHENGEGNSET
Chain of αvβ3 receptor (P05106 27-788): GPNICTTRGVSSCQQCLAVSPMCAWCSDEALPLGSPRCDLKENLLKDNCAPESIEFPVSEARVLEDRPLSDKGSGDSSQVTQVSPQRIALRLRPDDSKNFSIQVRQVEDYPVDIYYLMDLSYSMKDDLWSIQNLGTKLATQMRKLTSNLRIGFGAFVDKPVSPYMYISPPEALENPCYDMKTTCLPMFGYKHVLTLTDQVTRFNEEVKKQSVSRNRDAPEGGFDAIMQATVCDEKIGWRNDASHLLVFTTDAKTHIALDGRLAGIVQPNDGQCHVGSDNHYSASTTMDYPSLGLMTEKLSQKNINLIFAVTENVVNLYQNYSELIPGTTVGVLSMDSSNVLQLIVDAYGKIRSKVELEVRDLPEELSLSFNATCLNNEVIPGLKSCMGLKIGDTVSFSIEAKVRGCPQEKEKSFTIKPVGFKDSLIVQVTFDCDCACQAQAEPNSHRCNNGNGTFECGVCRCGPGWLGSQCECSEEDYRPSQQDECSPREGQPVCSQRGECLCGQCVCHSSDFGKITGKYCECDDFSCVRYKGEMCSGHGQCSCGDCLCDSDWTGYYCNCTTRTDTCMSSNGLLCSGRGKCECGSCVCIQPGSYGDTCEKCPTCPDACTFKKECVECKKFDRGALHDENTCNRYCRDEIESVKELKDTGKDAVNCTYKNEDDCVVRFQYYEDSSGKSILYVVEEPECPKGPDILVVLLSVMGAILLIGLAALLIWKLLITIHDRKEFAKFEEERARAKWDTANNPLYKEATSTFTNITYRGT
Chain of αvβ5 receptors (P06756 31-889 limits assumed): as the sequence (P06756 31-889 limits assumed) above
Chain of αvβ5 receptors (P06756 891-1048 partner limits assumed): as the sequence (P06756 891-1048 partner limits assumed) above
Chain of αvβ5 receptors (P18084 24-799): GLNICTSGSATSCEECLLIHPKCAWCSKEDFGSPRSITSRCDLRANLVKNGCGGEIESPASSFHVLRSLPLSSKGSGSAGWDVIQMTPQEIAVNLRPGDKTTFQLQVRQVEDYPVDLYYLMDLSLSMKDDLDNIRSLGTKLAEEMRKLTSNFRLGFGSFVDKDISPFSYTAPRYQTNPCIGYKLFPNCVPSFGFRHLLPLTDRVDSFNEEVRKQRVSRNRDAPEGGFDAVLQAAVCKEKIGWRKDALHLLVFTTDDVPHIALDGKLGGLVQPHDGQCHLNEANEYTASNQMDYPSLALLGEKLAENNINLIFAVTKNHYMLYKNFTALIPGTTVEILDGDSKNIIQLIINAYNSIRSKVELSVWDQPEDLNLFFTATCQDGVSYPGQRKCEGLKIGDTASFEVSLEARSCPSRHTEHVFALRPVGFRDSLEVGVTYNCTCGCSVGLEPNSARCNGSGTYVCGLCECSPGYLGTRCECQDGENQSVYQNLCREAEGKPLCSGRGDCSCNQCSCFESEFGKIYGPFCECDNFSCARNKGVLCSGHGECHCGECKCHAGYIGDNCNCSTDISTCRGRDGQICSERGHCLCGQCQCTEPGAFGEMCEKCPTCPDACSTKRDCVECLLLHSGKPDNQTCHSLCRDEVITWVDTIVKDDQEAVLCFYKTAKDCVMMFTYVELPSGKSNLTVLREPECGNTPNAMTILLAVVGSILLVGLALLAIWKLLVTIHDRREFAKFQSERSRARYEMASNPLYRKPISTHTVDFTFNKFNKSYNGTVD

CC[C@@]1(O)C(=O)OCc2c1cc1n(c2=O)Cc2c-1nc1ccccc1c2C=NOCCNC(=O)OCc1ccc(NC(=O)[C@H](CCCNC(N)=O)NC(=O)[C@H](C)NC(=O)COCCOCCOCC(=O)NCc2ccc(C[C@@H]3NC(=O)[C@@H](Cc4ccccc4)NC(=O)[C@H](CC(=O)O)NC(=O)CNC(=O)[C@H](CCCNC(=N)N)NC3=O)cc2)cc1 [ST3833]
IC50 (αvβ3 receptor): 0.0784 ± 0.0015 µM | Ki (αvβ3 receptor): 0.061 µM | BWL % (maximum body weight loss) ([1]; 56 mg/10 ml/kg i.v. q4dx4): 0% | Lethal toxicity (dead/treated animals) ([1]; 56 mg/10 ml/kg i.v. q4dx4): 0/11 | MST (median survival time) ([1]; 56 mg/10 ml/kg i.v. q4dx4): 58 days | Incidence of osteolytic lesions (mice with metastases) ([1]; 56 mg/10 ml/kg i.v. q4dx4, 30 days after tumour injection): 5/11 | tolerability ([1]; 56 mg/kg iv (q4dx4), no reduction of body weight or lethal toxicity): well tolerated | incidence of osteolytic lesions, % of mice ([1]; 56 mg/kg iv q4dx4, vehicle-treated group 91%): 45% | IC50 [2]: 2.1 ± 0.2 µM | IC50 [3]: 0.9 ± 0.05 µM | IC50 (αvβ5 receptors): 0.0878 ± 0.00121 µM | Ki (αvβ5 receptors): 0.0682 µM
